Measurements as given in patent publication US20230159583A1, “COMPOUND FOR TREATING GOUT, PREPARATION METHOD THEREFOR, AND USE THEREOF” (Huazhong Pharmaceutical Co., Ltd., priority 2020, published 2023).
Like-named read-outs stand apart in the source and are kept apart here.

Tests used:
Type in all cases: in vivo
[1] = test system: ICR mice; settings: p.o.
Description: The experiment was designed according to the “Technical Guideline for Acute Toxicity Test of Chemical Drugs” issued by the State Food and Drug Administration in March 2005. The doses administered were 4 g/kg, 4.91 g/kg, 6.14 g/kg, 7.68 g/kg, 9.6 g/kg, 12 g/kg, and 15 g/kg (the dose could be adjusted according to the actual test results), 12 ICR mice per dose group. If the administration volume is greater than 0.5 ml, it is better to perform the drug administration in two or more times (Note: according to the national standard GB 15193.3-2014, if multiple drug administrations are required, the time interval should be 4 h to 6 h each time, and the patient should be fasted on the day before drug administration).

[2] = test system: rat paw swelling induced by monosodium urate (MSU); assay: rat paw swelling model induced by monosodium urate (MSU); settings: for inhibition in vivo at 90 mg/kg / inhibition in vivo at 0.36 mg/kg / inhibition in vivo at 1.8 mg/kg / inhibition in vivo at 9 mg/kg / change in vivo at 90 mg/kg: Rattus norvegicus, po; for inhibition in vivo at 90 mg/kg / inhibition in vivo at 0.36 mg/kg / inhibition in vivo at 1.8 mg/kg / inhibition in vivo at 9 mg/kg: 1 h, read-out: Swelling inhibition rate; for inhibition in vivo at 0.36 mg/kg: dosage 0.36 mg/kg; for inhibition in vivo at 1.8 mg/kg: dosage 1.8 mg/kg; for inhibition in vivo at 9 mg/kg: dosage 9 mg/kg; for change in vivo at 90 mg/kg: read-out: Swelling degree; for Mean volume of paw after administration: 1 h after onset of inflammation (50 μL 2% MSU)
Excerpt: Gout is a disease unique to human, and gouty arthritis is an inflammatory reaction caused by the deposition of monosodium urate (MSU) in local joint tissues. Since purine metabolism pathways in some mammals such as mice and rabbits are different from those in humans, it is impossible to construct a gouty arthritis model by the method of interfering with purine metabolism disorders, so the most direct method for causing gouty arthritis is to directly inject MSU into the joint cavity of the model animal. The model is only used for simulating local joint inflammation of gout, is suitable for observation of local arthritis symptoms, is a common method for screening anti-inflammatory effects of gout drugs at present, and has the advantages of stability, easy operation and the like. (Reference: Li Na, Hua Long, and Yuan Hui. Research progress of gout animal models [J]. Medical theory and practice, 2016(24).
The anti-gout effect of the compound prepared in the above Example was detected by using a rat paw swelling model induced by monosodium urate (MSU), and the control sample was methylprednisolone.
Experimental method: MSU was used as an inflammatory agent, injected subcutaneously into the hind paws of rats to cause paw swelling, and then the volume of the paws was measured, and the swelling rates and swelling inhibition rates of the treatment group and the control group were compared. On the day of the experiment, the volume of right hind paw (ml) of each rat was measured firstly, and then after the onset of inflammation, the volume of right hind paw was measured so that the difference of volume of paw before and after inflammation was swelling degree, and the swelling inhibition rate of paw (swelling inhibition rate %=(C−T)/C*100%); C=swelling rate of the control group %, and T=swelling rate of the treatment group) was calculated. This method is one of the commonly used methods for screening anti-inflammatory effects of gout drugs, and the model is stable and easy to operate.
(2) One week before the subcutaneous injection of MSU into the feet and soles of the rats, the rats were given different doses of the test drugs, and the drugs were given by gavage once a day, for seven consecutive days. The circumference of the right hind paw was marked and measured before the last administration, and the average value of the two measurements was taken as the standard. 1 h after the last administration, animals in other groups were given 50 μL of 2% MSU in addition to the blank control group, and the paw circumference was measured 1 h after the onset of inflammation. […]

[3] = test system: carrageenan-induced mouse paw swelling; assay: carrageenan-induced mouse paw swelling model; settings: for Circumference of the paw after administration: 180 min after onset of inflammation (0.5% carrageenan); for inhibition in vivo at 0.26 mg/kg / inhibition in vivo at 13 mg/kg / inhibition in vivo at 130 mg/kg / change in vivo at 130 mg/kg: Mus musculus, po, 3 h; for inhibition in vivo at 0.26 mg/kg: dosage 0.26 mg/kg; for inhibition in vivo at 0.26 mg/kg / inhibition in vivo at 13 mg/kg / inhibition in vivo at 130 mg/kg: read-out: Swelling inhibition rate; for inhibition in vivo at 13 mg/kg: dosage 13 mg/kg; for change in vivo at 130 mg/kg: read-out: Swelling degree
Description: The anti-inflammatory effects of the compounds prepared in the above Examples were detected using a carrageenan-induced mouse paw swelling model, and the control sample was methylprednisolone:
Carrageenan-induced mouse paw swelling model is a classical acute inflammation model commonly used for evaluating or screening anti-inflammatory effects of drugs. When carrageenan is injected into the paw of mice, a series of reactions similar to human acute inflammation such as local capillary dilatation, increased vascular permeability, exudation and edema can be caused, so the model can be widely used in the evaluation of new drugs.
Reference for experimental method: Yang Huan, Cheng Xiao, Wang Yuehua, Du Guanhua. Effects of esculin on the swelling of toes and inflammation induced by carrageenan in mice [J]. Chinese Journal of New Drugs, 2016(25):2322.
On the day of the experiment, the circumference of right hind paw (cm) of each mouse was measured firstly, and then, after the onset of inflammation, the circumference of right hind paw was measured so that the difference of the circumferences of the paws before and after inflammation was swelling degree, and the swelling inhibition rate of paw (swelling inhibition rate %=(C−T)/C*100%); C=swelling rate of the control group %, and T=swelling rate of the treatment group) was calculated.
(2) Gavage administration was performed once a day for seven consecutive days. The circumference of the right hind paw was marked and measured before the last administration, and the average value of the two measurements was taken as the standard. 30 min after the last administration, 20 μL/mice of 0.5% carrageenan was injected into the right hind ankle of the mice to induce inflammation, and the circumference of paw was measured 180 min after the onset of inflammation. […]

[4] = SD rats, 90 mg/kg by gavage once a day for seven days, 1 h after onset of inflammation
[5] = rat, MSU-induced paw swelling, dosage 90 mg/kg
[6] = SD rats, 90 mg/kg by gavage once a day for seven days
[7] = ICR mice, 130 mg/kg by gavage once a day for seven days, 180 min after onset of inflammation
[8] = ICR mice, 130 mg/kg by gavage once a day for seven days
[9] = mouse, carrageenan-induced paw swelling
[10] = mouse, carrageenan-induced paw swelling, dosage 130 mg/kg

SMILES	Mortality ([1]; 4 g/kg)	Mortality ([1]; 4.91 g/kg)	Mortality ([1]; 6.14 g/kg)	Mortality ([1]; 7.68 g/kg)	Mortality ([1]; 9.6 g/kg)	Mortality ([1]; 12 g/kg)	Mortality ([1]; 15 g/kg)	inhibition in vivo at 90 mg/kg [2, 4] [%]	inhibition in vivo at 0.36 mg/kg ([2]; rat, MSU-induced paw swelling) [%]	inhibition in vivo at 1.8 mg/kg ([2]; rat, MSU-induced paw swelling) [%]	inhibition in vivo at 9 mg/kg ([2]; rat, MSU-induced paw swelling) [%]	inhibition in vivo at 90 mg/kg [2, 5] [%]	change in vivo at 90 mg/kg [2, 4] [%]	Swelling value [2, 4] [mL]	Mean volume of paw after administration [2, 6] [mL]	Swelling value [3, 7] [cm]	Circumference of the paw after administration [3, 8] [cm]	inhibition in vivo at 0.26 mg/kg [3, 9] [%]	inhibition in vivo at 13 mg/kg [3, 9] [%]	inhibition in vivo at 130 mg/kg [3, 10] [%]	other results
CC(=O)OC/C(=N\O)[C@@]1(O)CC[C@H]2[C@@H]3CCC4=CC(=NO)CC[C@]4(C)[C@H]3[C@@H](O)C[C@@]21C [Example 5, (2E)-2-((8S,9S,10R,11S,13S,14S,17R)-11,17-dihydroxy-3-(hydroxyimino)-10,13-dimethyl-2,3,6,7,8,9,10,11,12,13,14,15,16,17-tetrahydro-1H-cyclopentane[α]phenanthroyl)-2-(hydroxyimino)ethyl acetate]	0/12	0/12	0/12	0/12	1/12	2/12	4/12	82.1	23.4	35.3	56.3	80.1	59	0.72	1.94	0.04	1.52	13.5	56.8	88.1	change in vivo at 130 mg/kg [3, 7]: 2.7%; inhibition in vivo at 130 mg/kg [3, 7]: 86%
CC1(C)O[C@@H]2C[C@H]3[C@@H]4C[C@H](F)C5=CC(=NO)C=C[C@]5(C)[C@@]4(F)[C@@H](O)C[C@]3(C)[C@]2(/C(CO)=N/O)O1 [Example 8, (2S,6aS,6bR,7S,8aS,8bR,11aR,12aS,12bS)-2,6b-difluoro-7-hydroxy-8b-((E)-2-hydroxy-1-(hydroxyimino)ethyl)-6a,8a,10,10-tetramethyl-1,2,6a,6b,7,8,8a,8b,11a,12,12a,12b-dodecahydro-4H-naphtho[2′,1′:4,5]indeno[1,2-d][1,3]dioxol-4-one oxime]	0/12	0/12	0/12	0/12	0/12	0/12	1/12	91.8	17.2	32.1	41.2	93.5	26.8	0.33	1.56	0.02	1.49	24.5	46.8	93.2	change in vivo at 130 mg/kg [3, 7]: 1.36%; inhibition in vivo at 130 mg/kg [3, 7]: 93%
